In patent publication US6617337B1, “Use of nitroxides for the treatment of essential hypertension” (Georgetown University, priority 1997, dated 2003):

Experiments:
Assay type in all cases: in vivo, rat
[1] = test system: SHR; experiment: TGF response to SNAP microperfused into the macula densa during Tempol microperfusion via the efferent arteriole
Excerpt: Two additional microperfusion studies were undertaken to assess the mechanism of Tempol action in SHR. […] A dose of 10^−6 M […] (SNAP), a NO donor compound, was microperfused into the macula densa of the rats. […] Other NO donor compounds include nitroprusside and nitrates.

[2] = test system: SHR rats; experiment: TGF response to 7-NI microperfused into the macula densa before and during Tempol microperfusion into efferent arterioles
Excerpt: This also implies that it had normalized the action of NO in this setting, thereby correcting the defect in the NO action in hypertension and restoring normal vascular control. This is filly consistent with its action on a free radical scavenging agent that thereby protects NO from radical attack.

[3] = test system: SHR and WKY rats; experiment: Maximal TGF responses (proximal stop flow pressure) during orthograde loop of Henle microperfusion of 7-NI (Series 4); conditions: for PSF difference 0-40 nl·min^−1 (maximal TGF response) / PSF during LH perfusion at 0 nl·min^−1 / PSF during LH perfusion at 40 nl·min^−1: ATF+7-NI 10^−4 M, mean ± SEM
Protocol: (§1) Series 4. Effects of inhibition of bNOS on maximal TGF responses in SHR and WKY. These experiments further examined the SHR hypertension model and whether the enhanced TGF of the SHR kidney is due to a blunted generation of NO by bNOS in the macula densa or whether NOS inhibition is diminished in the SHR model. Groups of SHR and age-matched WKY rats were prepared for in vivo micropuncture, microperfusion, and TGF studies as described in detail previously. In brief, animals were anesthetized with thiobarbital (Inactin, 100 mg·kg^−1; Research Biochemicals, Inc., Natick, Mass.). A catheter was placed in a jugular vein for fluid infusion and in a femoral artery for recording of mean arterial pressure (MAP) from the electrically damped output of a pressure transducer (Statham, Inc.). A tracheotomy tube was inserted and the animals were allowed to breathe spontaneously. The left kidney was exposed by a flank incision, cleaned of connective tissue, and stabilized in a Lucite cup. This kidney was bathed in 0.154 M NaCl maintained at 37° C. After completion of surgery, rats were infused with a solution of 0.154 M NaCl and 1% albumin at 1.5 ml·h^−1 to maintain a euvolemic state. Micropuncture studies were begun after 60 min for stabilization.
(§2) For orthograde microperfusion of the loop of Henle (LH), a micropipette (8 μm OD) containing artificial tubular fluid (ATF) stained with FD&C dye was inserted into a late proximal tubule. Injections of the colored ATF identified the nephron and the direction of flow. An immobile bone wax block was inserted into this micropuncture site via a micropipette (10-15 μm) and connected to a hydraulic drive (Trent Wells, Inc., LaJolla, Calif.) to halt tubular fluid flow. A perfusion micropipette (6-8 μm) containing ATF and test compounds or vehicle was inserted into the proximal tubule downstream from the wax block and connected to a nanoliter perfusion pump (WPI, Sarasota, Fla.). A pressure micropipette (1-2 μm) was inserted into the proximal tubule upstream from the wax block to measure proximal stop flow pressure (PSF). Changes in PSF are an index of changes in glomerular capillary hydraulic pressure (PGC). Measurements of PSF were made in each nephron during zero loop perfusion and during perfusion with ATF at 40 nl·min^−1, which produces a maximal TGF response, defined as the difference between PSF values recorded during perfusion of the loop with ATF at 0 and 40 nl·min^−1.
The maximal TGF responses were determined in SHR (n=4) and WKY rats (n=4) to perfusion of the LH with ATF+vehicle and contrasted with the maximal TGF responses during perfusion with ATF+7-nitroindazole (7-NI; 10^−4 M).

[4] = test system: SHR; experiment: Role of NO in the MAP response to constant Tempol infusion (L-NAME or norepinephrine pretreatment); conditions: for Change in MAP at 50 min (time control): separate group of SHR, NS
[5] = test system: SHR and WKY rats; experiment: Maximal TGF responses during orthograde microperfusion of L-arginine (Series 5); conditions: for PSF difference 0-40 nl·min^−1 (maximal TGF response) / PSF during LH perfusion at 0 nl·min^−1 / PSF during LH perfusion at 40 nl·min^−1: ATF+L-arginine 10^−3 M, mean ± SEM
Protocol: as §1, §2
Series 5: Maximal TGF responses during microperfusion of L-arginine in SHR and WKY. L-arginine had previously been shown not to lower blood pressure or the glomerular filtration rate in the SHR model. However, L-arginine can restore a TGF response to NOS blockade in tested rats adapted to low salt intake. Therefore, the role of L-arginine was tested in the SHR model. This series examined the effect of a reduced delivery of L-arginine to the macula densa on NO generation, as assessed in Series 4. Groups of SHR (n=4) and WKY rats (n=3) were prepared for microperfusion. PSF was recorded during orthograde LH perfusion at 0 and 40 nl·min^−1 with ATF+vehicle and ATF+L-arginine (10^−3 M). (Previous studies had shown that this was a maximally effective dose.)

SMILES: CC(=O)N[C@H](C(=O)O)C(C)(C)SN=O (racemic) [SNAP, 5-nitroacetylpenacillamine]
- Blunting of TGF response ([1]; SNAP 10^−6 M during Tempol 10^−4 M microperfusion via efferent arteriole, p<0.01): more than 25%
- Effect of SNAP dose alone on TGF ([1]; SNAP 10^−6 M into macula densa, without Tempol): just subthreshold

SMILES: O=[N+]([O-])c1cccc2cn[nH]c12 [7-NI, 7-nitroindazole]
- Increase in TGF in the presence of 7-NI ([2]; 7-NI 10^−4 M during Tempol 10^−4 M microperfusion into efferent arterioles): greater than 25%
- TGF response to 7-NI before Tempol ([2]; 7-NI 10^−4 M into macula densa, before Tempol): no significant TGF response
- Effect on TGF responses ([3]; SHR, 7-NI added to orthograde LH perfusate): no significant effects
- PSF difference 0-40 nl·min^−1 (maximal TGF response) ([3]; SHR): 12.5 ± 0.6 mm Hg
- PSF during LH perfusion at 0 nl·min^−1 ([3]; SHR): 41.0 ± 1.0 mm Hg
- PSF during LH perfusion at 40 nl·min^−1 ([3]; SHR): 29.3 ± 0.7 mm Hg
- Average increase in maximal TGF response ([3]; WKY, 7-NI added to orthograde LH perfusate): 39%
- PSF difference 0-40 nl·min^−1 (maximal TGF response) ([3]; WKY): 13.2 ± 0.7 mm Hg
- PSF during LH perfusion at 0 nl·min^−1 ([3]; WKY): 38.1 ± 0.8 mm Hg
- PSF during LH perfusion at 40 nl·min^−1 ([3]; WKY): 25.0 ± 1.2 mm Hg

SMILES: COC(=O)[C@@H](N)CCCNC(=N)N[N+](=O)[O-] [L-NAME]
- Increase in MAP ([4]; SHR, twenty minutes of L-NAME infusion alone): 18%
- MAP after L-NAME infusion alone ([4]; SHR, twenty minutes of L-NAME infusion, from 158±11): 187±8 mm Hg
- Change in MAP at 50 min (time control) ([4]; L-NAME infusion): 0.3±3.3%

SMILES: N=C(N)NCCC[C@H](N)C(=O)O [L-arginine]
- PSF difference 0-40 nl·min^−1 (maximal TGF response) ([5]; SHR): 10.6 ± 0.7 mm Hg
- PSF during LH perfusion at 0 nl·min^−1 ([5]; SHR): 41.0 ± 1.2 mm Hg
- PSF during LH perfusion at 40 nl·min^−1 ([5]; SHR): 30.4 ± 0.7 mm Hg
- Effect on TGF responses ([5]; SHR, L-arginine added to orthograde LH perfusate): no significant effects
- PSF difference 0-40 nl·min^−1 (maximal TGF response) ([5]; WKY): 6.3 ± 0.4 mm Hg
- PSF during LH perfusion at 0 nl·min^−1 ([5]; WKY): 36.1 ± 0.7 mm Hg
- PSF during LH perfusion at 40 nl·min^−1 ([5]; WKY): 29.8 ± 0.5 mm Hg
- Average blunting of TGF responses ([5]; WKY, L-arginine added to orthograde LH perfusate): 18%

SMILES: NC[C@H](O)c1ccc(O)c(O)c1 [Norepinephrine, norepinephrine]
- Increase in MAP ([4]; SHR, norepinephrine 31 nmol·kg^−1·min^−1): 15%
- MAP after norepinephrine infusion ([4]; SHR, norepinephrine 31 nmol·kg^−1·min^−1, from 164±4): 188±7 mm Hg
- Change in MAP at 50 min (time control) ([4]; norepinephrine infusion): 2.0±0.0%
